Consider two compounds from patent US20210275543A1, “METHODS FOR THE TREATMENT OF MITOCHONDRIAL GENETIC DISEASES” (NSERM (INSTITUT NATIONAL DE LA SANTÉ ET DE LA RECHERCHE …, priority 2017, published 2021).

In one assay the test system is Ndufs4−/− mice. The assay can be described thus: PIK3CA inhibition in Ndufs4 knockout mouse model of Leigh syndrome (survival). Type of assay: in vivo. As to conditions: 50 mg·kg-1 daily p.o. The source says:
Leigh Syndrome is a severe mitochondrial disease that occurs in about 1:40,000 newborns and is associated with retarded growth, muscular deficits including myopathy and dyspnea, lactic acidosis, and a characteristic progressive necrotizing encephalopathy of the vestibular nuclei, cerebellum, and olfactory bulb (Budde et al., 2002). Ndufs4 encodes a subunit of Complex I of the mitochondrial electron transport chain; mutations in the NDUFS4 gene cause LS in humans (Budde et al., 2000), and the Ndufs4 knockout mouse is a murine model of LS (Kruse et al., 2008). Ndufs4−/− mice have decreased Complex I levels and activity in multiple tissues and show severe and progressive symptoms of mitochondrial disease that mirror human LS. LS results in death at an average of […] in humans, and Ndufs4 KO mice show a similar early-life mortality with an average lifespan of just 60 days. Heterozygous Ndufs4 knockout mice on a C57Bl/6NIA background were bred to produce homozygous KO animals. Animals were fed ad libitum and housed at a constant ambient temperature in a 12-hour light cycle. Animal procedures were approved by the “Services Vétérinaires de la Prefecture de Police de Paris” Departmental Director and by the ethical committee of the Paris Descartes University.
At the age of 21 days, Ndufs4−/− mice were treated with the PI3KCA inhibitor, BYL719 (MedChem Express; 50 mg·kg-1 in 0.5% carboxymethylcellulose (Sigma Aldrich), daily p.o.) (n=9) or vehicle (0.5% carboxymethylcellulose (Sigma Aldrich), daily p.o.) (n=8).

The test system of assay [1] is primary dermal fibroblasts from patients with mitochondrial disorders and controls. Briefly: Analysis of mitochondrial membrane potential and morphology (TMRE / 10-NAO staining, confocal microscopy and flow cytometry). Type of assay: cell-based, human. The method, then: (§1) Punch skin biopsies were collected using standard methods.
(§2) To generate dermal fibroblast cultures, biopsies were minced and incubated at room temperature in 0.05% trypsin-EDTA (ThermoFisher 25300054) solution for 30 min with gentle shaking. Cells were collected by centrifuging at 700 g for 10 min, re-suspended in cell culture media containing 25% FBS, and plated onto 24 well plates to establish lines. Fibroblast cultures were grown and maintained in 1×MEM (Corning 10-010-CV) supplemented with 25% FBS and penicillin/streptomycin (Corning 30-001-CI) to a final concentration of 100 IU penicillin and 500 μg/mL streptomycin.
Cells at similar population doubling (PD-10+/−2) were plated 1:4 from confluent cultures onto coverglass chamberslides and allowed to grow until ˜80% confluent. Media was replaced and supplemented with […] BYL719 (Chem Express) in DMSO (Fisher BP321-1), or equal volume DMSO, for 48 hours. Cells were stained for 15 min in media with 100 nM tetramethylrhodamine ethyl ester (TMRE, Fisher BDB564696) and 5 μg/mL Hoechst 33342 (Biotium 89139-126) and imaged on a Leica SP5 confocal microscope. Samples were treated and imaged in one session using identical imaging parameters. Flow cytometry analysis was performed by staining cells with only TMRE or 10-N-nonyl acridine orange (10-NAO), dissociating with trypsin-EDTA containing dye for 10 min at room temperature, collecting cells by centrifugation, resuspension in cold PBS, and analysis on a BD Canto II flow cytometer using 488 nm excitation with 585/42 BP and 530/30 BP filters for TMRE and 10-NAO, respectively. A single gate was set to cells using forward and side scatter and all settings unchanged throughout data collection. 10,000 or more events were collected for every sample.
A general note: Flow cytometry measures light scatter and fluorescence of single cells or particles in a stream.

Assay [2] deals with phosphorylated ribosomal protein S6 (mTORC1 signaling). The assay can be described thus: Analysis of S6 phosphorylation by western blotting in primary dermal fibroblasts. The format is cell-based, human. As to conditions: for S6 phosphorylation (phosphorylated ribosomal protein S6 vs total rpS6, GAPDH): 48 hours of treatment, 5 μmol/L BYL719. As to the method: as §1, §2
Cells at similar population doubling (PD-10+/−2) were plated 1:4 from confluent cultures and allowed to grow until ˜80% confluent. Media was replaced with media containing 5 μmol/L BYL719 (Chem Express) in DMSO or equal volume DMSO for 48 hours. Cultures were rinsed with 1×PBS, treated for 10 min with 0.05% Trypsin, collected by centrifugation at 4° C., and pellets were flash frozen on dry ice. Protein lysates were collected by directly adding 1×RIPA buffer (Pierce 89900) containing protease and phosphatase inhibitors (Pierce PI78441) to cell pellets, sonicating in 10 one-second bursts, on ice, with an XL-2000 QSonica at maximum output, and centrifuging to remove cell debris. Protein concentration was determined by BCA assay (Pierce PI23228), equal protein run on 4-12% bis-tris 26 well NuPage midigels (Fisher WG1403), and transferred to nitrocellulose blots (Fisher IB23001). Blots were blocked in LICOR Odyssey blocking buffer (LICOR 427-40100), probed with primary antibodies anti-pS6, anti-S6, and anti-GAPDH (Cell Signaling 4858P, 2217S, and 2118S, respectively) followed by secondary antibody IRDye800 donkey anti-rabbit (LICOR 925-32213) and imaged using LICOR Odyssey Clx scanning imager as previously described^9. Data quantified using NIH ImageJ^11.
In general terms: Immunoblotting shows a protein as a band on a membrane.

Setting [3] is: primary MELAS patient and control fibroblast lines, FIG. 1A.

In the case of `Cc1nc(NC(=O)N2CCC[C@H]2C(N)=O)sc1-c1ccnc(C(C)(C)C(F)(F)F)c1` [BYL719, Alpelisib], the animal survival entry in the assay with Ndufs4−/− mice (Ndufs4−/− mice treated from age 21 days, vs vehicle, FIG. 2) is recorded as “dramatically improved animal survival”. Further, the “appearance of treated animals” value in the assay on Ndufs4−/− mice (Ndufs4−/− mice, 120 days later) is “overtly normal appearance”. In the assay on Ndufs4−/− mice (Ndufs4−/− mice, all placebo-treated mice died within 80 days), this compound gave a time alive not below 120 days. The “mitochondrial membrane potential (TMRE staining intensity) and morphology (fragmentation, depolarized mitochondria)” value in assay [1] (MELAS fibroblasts, 48 hours, confocal microscopy, FIG. 1C) was “attenuated these phenotypes in all MELAS fibroblasts”. Also, in assay [1] (MELAS fibroblasts, flow cytometry, data not shown), the “membrane potential (TMRE) by flow cytometry” value is listed as “rescue”. Also, the “mitochondrial membrane potential (TMRE staining intensity) and morphology” value in assay [1] (control cells, 48 hours, confocal microscopy, FIG. 1C) is given as “no overt impact”. In addition, in assay [2] (all cell lines (patients with mitochondrial disorders and controls), 48 hours, FIGS. 1A and 1B), the pS6 levels entry is recorded as “reduced pS6 levels in all cell lines”. Besides, the “S6 phosphorylation (phosphorylated ribosomal protein S6 vs total rpS6, GAPDH)” value in assay [2] (other mitochondrial disorders and control fibroblast lines, FIG. 1B) is recorded as “inhibited S6 phosphorylation”; in assay [2] (setting [3]) it was “inhibited S6 phosphorylation”.
As for cyclosporin A, in assay [2] (setting [3]), the “S6 phosphorylation (phosphorylated ribosomal protein S6 vs total rpS6, GAPDH)” value is reported as “no significant impact”.
